Data reported in patent US10258602B2 (Ocera Therapeutics, Inc., priority 2007, dated 2019).

How the values were obtained:
[1] = target: human growth hormone secretagogue receptor (hGHS-R1a) (Homo sapiens, UniProt Q92847); assay: Competitive radioligand binding assay (ghrelin receptor), standard method A
[2] = Pharmacokinetic analysis (oral bioavailability, elimination half-life) in the rat; assay type: in vivo
Description: D. Pharmacokinetic Analysis of Representative Compounds of the Invention
The pharmacokinetic behavior of compound of the invention can be ascertained by methods well known to those skilled in the art. (Wilkinson, G. R. “Pharmacokinetics: The Dynamics of Drug Absorption, Distribution, and Elimination” in Goodman & Gilman's The Pharmacological Basis of Therapeutics, Tenth Edition, Hardman, J. G.; Limbird, L. E., Eds., McGraw Hill, Columbus, Ohio, 2001, Chapter 1.) The following method was used to investigate the pharmacokinetic parameters (elimination half-life, total plasma clearance, etc.) for intravenous, subcutaneous and oral administration of compounds of the present invention. See also U.S. patent application Ser. No. 11/149,512 and Ser. No. 11/149,731 and Intl. Pat. Appl. No. PCT/US2007/017905.
The table below presents oral bioavailability and elimination half-life data in the rat for representative compounds of the present invention. The parameters were determined by HPLC-MS after oral administration of an 8 mg/kg dose of the compound, except for compound 822 where a 2 mg/kg dose was used.

[3] = tested on: fasted rats; assay: Gastric emptying in fasted rat model, standard method E; assay type: in vivo; conditions: average where repeated
Description: E. Gastric Emptying in Fasted Rat Model
To examine the effects of compounds of the invention in a model for gastroparesis, compounds were evaluated for possible effects on gastric emptying in fasted rats. This model is used to determine the potential of compounds of the invention to promote motility in fasted rats.
• 1. Overnight-fasted rats (male, Wistar, 200 g, n=5/group) were given a meal (2 mL) of methylcellulose (2%) by intragastric gavage. The meal was labeled with phenol red (0.05%). • 2. Test articles (dosed at various concentrations, typically 1, 3, 10, 30 mg/kg), vehicle and positive control (metoclopramide, a 5-HT ligand and prokinetic agent currently prescribed for the treatment of GI disorders, including gastroparesis) were administered by oral gavage immediately after the meal (time=0). • 3. […] Total phenol red remaining in the stomach was quantified by a colorimetric method at 560 nm. • 5. A 30% or more increase in gastric emptying (as compared to the vehicle control) was considered significant. • 6. One-way ANOVA, Dunnet's post-hoc statistical test was applied Results
The effects of representative compounds of the invention in the rat gastric emptying model described in standard method E are provided in the following table. In cases where an experiment was conducted multiple times, the average of the individual results is presented.

[4] = Plasma protein binding, human plasma (equilibrium dialysis); assay type: in vitro ADME; conditions: test concentration 3 μg/mL
Description: J. Plasma Protein Binding
The pharmacokinetic and pharmacodynamic properties of drugs are largely a function of the reversible binding of drugs to plasma or serum proteins such as albumin and α1-acid glycoprotein. In general, only unbound drug is available for diffusion or transport across cell membranes, and for interaction at the pharmacological target. On the other hand, drugs with low plasma protein binding generally have large volumes of distribution and rapid clearance since only unbound drug is available for glomerular filtration and, in some cases, hepatic clearance. Thus, the extent of plasma protein binding can influence efficacy, distribution and elimination. The ideal range for plasma protein binding is in the range of 87-98% for most drug products.
Protein binding studies were performed using human plasma. Briefly, 96-well microplates were used to incubate various concentrations of the test article for 60 min at 37° C. Bound and unbound fractions are separated by equilibrium dialysis, where the concentration remaining in the unbound fraction is quantified by LC-MS or LC-MS-MS analysis. […].
The table below presents protein binding data for representative compounds of the present invention in both human and rat plasma.

[5] = target: T1, hGHS-R1a (Homo sapiens, UniProt Q92847); assay: Activation-desensitization profile, Ca2+ flux in HEK293 cells stably expressing hGHS-R1a; assay type: cell-based; conditions: higher positive = less desensitization potential
T1 construct: expressed in transfected cells
Description: M. Activation-Desensitization Profile
It is well-known that agonists of G-protein coupled receptors can induce desensitization or tachyphylaxis, thereby limiting the potential of agents acting at the receptor as therapeutics for chronic use.
• 1. […] Agonist-induced Ca^+2 fluxes were measured after loading with Ca^+2 indicator Fluo-4-AM. • 3. […] Results

[6] = in vitro; conditions: human, Caco-2
Description: L. Determination of Caco-2 Permeability
Fully differentiated cell monolayers can be used to assess the membrane transport properties of novel compounds.
Permeability across the Caco-2 cell layer was determined by growing the cells on a membrane placed between two (donor and acceptor) chambers. […] Permeability in this direction represents intestinal absorption. Permeability may also be determined from the basolateral to the apical side of the Caco-2 cell. A higher apical to basolateral Papp, compared to the basolateral to apical Papp, is indicative of carrier-mediated transport.
Permeability (10 μM) for compounds of the invention in the apical to basolateral and basolateral to apical direction were tested in duplicate. Samples will be collected from the donor and acceptor chambers at the beginning (0 min) and following 60 min of incubation at 37° C. and stored frozen at −70° C. until bioanalysis. Samples for each test compound generated from the Caco-2 permeability assay were further analyzed by LC-MS-MS. The permeability of [^3H]-mannitol and [^3H]-propranolol were determined in parallel as controls.
The permeability coefficient (Papp) of each compound and radiolabeled standard was determined using the following equation:
where dQ/dT represents the permeability rate, Ci denotes the initial concentration in the donor compartment, and A represents the surface area of the filter. Ci is determined from the mean concentration of duplicate samples taken prior to addition to the donor compartment. Permeability rates were calculated by plotting the cumulative amount of compound measured in the acceptor compartment over time and determining the slope of the line by linear regression analysis. The duplicate and mean apical to basolateral and basolateral to apical Papp's were reported for each compound and standard.

[7] = tested on: rat stomach fundus strips; assay: tissue or blood; conditions: read-out: EC50 values for contractility
Description: Fundus strips (approximately 0.4×1 cm) were cut from the stomach of adult male Wistar rats parallel to the circular muscle fibers. They were placed between two platinum ring electrodes, 1 cm apart (Radnoti, ADInstruments, USA) in 10 ml tissue baths containing Krebs solution bubbled with 5% CO2 in O2 and maintained at 37° C. Tissues were suspended under 1.5 g resting tension. Changes of tension were measured isometrically with force transducers and recorded with a PowerLab 8/30 data acquisition system (ADInstruments, USA). Tissues were allowed to equilibrate for 60 min during which time bath solutions were changed every 15 min.
EFS was achieved by applying 0.5 ms pulses, 5 Hz frequency, at a maximally effective voltage of 70 V. EFS was applied for 30 sec at 3 min intervals for a 30 min initial period. This initial period was separated by a 5 min interval with wash out of the bath solution. Then, a second period of stimulation was started. […] Responses to the agents were measured and expressed as % of the mean of three or four pre-drug responses to EFS. All compounds were dissolved at 1 mM in distilled water or MeOH, as stock solutions.

T1 sequence (Q92847 whole entry): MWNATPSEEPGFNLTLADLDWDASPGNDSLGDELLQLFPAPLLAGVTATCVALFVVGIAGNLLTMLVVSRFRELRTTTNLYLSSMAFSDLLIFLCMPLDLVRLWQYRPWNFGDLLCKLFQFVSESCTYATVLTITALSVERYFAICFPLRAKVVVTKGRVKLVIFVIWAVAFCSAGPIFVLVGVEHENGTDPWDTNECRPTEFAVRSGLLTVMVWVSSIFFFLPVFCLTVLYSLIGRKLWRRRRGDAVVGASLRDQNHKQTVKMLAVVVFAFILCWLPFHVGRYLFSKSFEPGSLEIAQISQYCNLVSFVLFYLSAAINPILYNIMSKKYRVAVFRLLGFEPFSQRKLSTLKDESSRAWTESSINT
Chain of human growth hormone secretagogue receptor (hGHS-R1a) (Q92847 whole entry): as above

- Ki [1]: ≤ 1 nM
- Oral Bioavailability (rat, % F) ([2]; oral administration, 8 mg/kg dose, HPLC-MS): 4 % F
- bioavailability ([2]; plasma, 8 mg/kg, oral administration (Example 3)): 4%
- half-life ([2]; plasma, oral administration, 8 mg/kg dose, HPLC-MS, read-out: Elimination Half-life (t1/2, rat, min)): 42 min
- fraction unbound at 60 min, 3 μg/mL [4]: 0.116
- Papp A→B at 60 min, 10 μM [6]: 163 ×10⁻⁶ cm/s
- Papp B→A at 60 min, 10 μM [6]: 110 ×10⁻⁶ cm/s
- efflux ratio at 60 min, 10 μM [6]: 0.672
- EC50 [7]: 300 nM
SMILES: CC(C)C[C@H]1NC(=O)[C@@H](C)N(C)C(=O)[C@H](C2CCCCC2)NC[C@H]2CCc3cccc(c3O2)CCCNC1=O [Compound 801]
- Percent Increase in Gastric Emptying After Oral Administration ([3]; dose 3 mg/kg): 27%
- Percent Increase in Gastric Emptying After Oral Administration ([3]; dose 10 mg/kg): 31%
- Percent Increase in Gastric Emptying After Oral Administration ([3]; dose 30 mg/kg): 40%
- Δ(activity-desensitization) (pEC50 − pDC50) [5]: 3.30
